Experimental data as given in PubChem BioAssay AID192 (DTP/NCI, 2004).
Several values for one entry are separate records, joined by “and”; a condition that tells them apart may be missing. Equal values may be shown once. Toxic doses and inconclusive results are not listed.

Tested on: BDF1 mice, B16 melanoma ip, median survival T/C
Test: NCI In Vivo Anticancer Drug Screen. Data for tumor model B16 Melanoma (intraperitoneal) in B6D2F1 (BDF1) mice
Conditions: endpoint: median survival time, higher = longer survival
How it was run: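 Tumor-bearing mice received test compound or vehicle. Survival or tumor size was then measured in both groups. The treated-group figure was divided by the control-group figure.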

[1] = dose: 100.0 mg/kg/injection, schedule: Q01DX009 (ip), vehicle: saline
[2] = dose: 200.0 mg/kg/injection, schedule: Q01DX009 (ip), vehicle: saline
[3] = dose: 12.5 mg/kg/injection, schedule: Q01DX009 (ip), vehicle: Klucel (hydroxypropylcellulose) (HPC)
[4] = dose: 25.0 mg/kg/injection, schedule: Q01DX009 (ip), vehicle: Klucel (hydroxypropylcellulose) (HPC)
[5] = dose: 50.0 mg/kg/injection, schedule: Q01DX009 (ip), vehicle: Klucel (hydroxypropylcellulose) (HPC)
[6] = dose: 100.0 mg/kg/injection, schedule: Q01DX009 (ip), vehicle: Klucel (hydroxypropylcellulose) (HPC)
[7] = dose: 200.0 mg/kg/injection, schedule: Q01DX009 (ip), vehicle: Klucel (hydroxypropylcellulose) (HPC)
[8] = dose: 400.0 mg/kg/injection, schedule: Q01DX009 (ip), vehicle: Klucel (hydroxypropylcellulose) (HPC)

SMILES: Nc1nc2n[nH]nc2c(=O)[nH]1
- T/C (dose: 25.0 mg/kg/injection, schedule: Q01DX009 (ip), vehicle: saline): 108 % of control
- T/C (dose: 50.0 mg/kg/injection, schedule: Q01DX009 (ip), vehicle: saline): 108 % of control
- T/C [1]: 113 % of control
- T/C [2]: 111 % of control

SMILES: CC(NC(=O)OCc1ccccc1)C(=O)O (stereo unspecified)
- T/C (dose: 3.12 mg/kg/injection, schedule: Q01DX009 (ip), vehicle: Klucel (hydroxypropylcellulose) (HPC)): 97 % of control
- T/C (dose: 6.25 mg/kg/injection, schedule: Q01DX009 (ip), vehicle: Klucel (hydroxypropylcellulose) (HPC)): 88 % of control
- T/C [3]: 94 % of control
- T/C [4]: 88 % of control
- T/C (dose: 100.0 mg/kg/injection, schedule: Q04DX003 (ip), vehicle: Klucel (hydroxypropylcellulose) (HPC)): 88 % of control

SMILES: CS(=O)(=O)OCCCNCCCOS(C)(=O)=O
- T/C (dose: 1.25 mg/kg/injection, schedule: Q01DX009 (ip), vehicle: saline): 103 % of control
- T/C (dose: 2.5 mg/kg/injection, schedule: Q01DX009 (ip), vehicle: saline): 110 % of control
- T/C (dose: 5.0 mg/kg/injection, schedule: Q01DX009 (ip), vehicle: saline): 123 % of control
- T/C (dose: 10.0 mg/kg/injection, schedule: Q01DX009 (ip), vehicle: saline): 159 % of control
- T/C (dose: 20.0 mg/kg/injection, schedule: Q01DX009 (ip), vehicle: saline): 161 % of control and 175 % of control and 202 % of control
- T/C (dose: 30.0 mg/kg/injection, schedule: Q01DX009 (ip), vehicle: saline): 189 % of control
- T/C (dose: 40.0 mg/kg/injection, schedule: Q01DX009 (ip), vehicle: saline): 201 % of control and 215 % of control and 271 % of control
- T/C (dose: 60.0 mg/kg/injection, schedule: Q01DX009 (ip), vehicle: saline): 228 % of control

SMILES: O=C1C=C(Nc2ccccc2)c2ccccc2C1=O
- T/C [3]: 93 % of control
- T/C [4]: 105 % of control
- T/C [5]: 88 % of control
- T/C [6]: 87 % of control

SMILES: Cc1ccccc1-n1c(C)nc2ccccc2c1=O
- T/C [3]: 92 % of control and 108 % of control
- T/C [4]: 92 % of control
- T/C [5]: 88 % of control and 90 % of control
- T/C [6]: 88 % of control
- T/C [7]: 90 % of control

SMILES: ClC1OC(Cl)(Cl)C(Cl)(Cl)OC1(Cl)Cl (stereo unspecified)
- T/C [6]: 93 % of control
- T/C [7]: 93 % of control
- T/C [8]: 86 % of control

SMILES: O=C1N=C(Oc2ccccc2)SC1=O
- T/C (dose: 12.5 mg/kg/injection, schedule: Q01DX009 (ip), vehicle: saline with Tween-80): 101 % of control
- T/C (dose: 25.0 mg/kg/injection, schedule: Q01DX009 (ip), vehicle: saline with Tween-80): 96 % of control

SMILES: NC(=O)NOCC1NC(=O)C(CONC(N)=O)NC1=O (stereo unspecified)
- T/C [1]: 98 % of control
- T/C [2]: 94 % of control
- T/C (dose: 200.0 mg/kg/injection, schedule: Q04DX003 (ip), vehicle: saline): 102 % of control
- T/C (dose: 400.0 mg/kg/injection, schedule: Q01DX009 (ip), vehicle: saline): 97 % of control
- T/C (dose: 400.0 mg/kg/injection, schedule: Q04DX003 (ip), vehicle: saline): 94 % of control

SMILES: COc1ccc(CSC(=S)NNc2ccccc2)cc1
- T/C [6]: 107 % of control
- T/C [7]: 103 % of control
- T/C [8]: 106 % of control

SMILES: O=C(Nc1nccs1)Nc1ccccc1C(F)(F)F
- T/C [4]: 103 % of control
- T/C [5]: 99 % of control
- T/C [6]: 97 % of control
- T/C [7]: 103 % of control
- T/C [8]: 99 % of control

SMILES: C=C(C)[C@@]12O[C@@]3(/C=C/C=C/CCCCC)O[C@@H]1[C@@H]1[C@@H]4O[C@]4(COC(=O)CCCCCCCCCCCCCCC)[C@@H](O)[C@]4(O)C(=O)C(C)=CC4[C@@]1(O3)[C@H](C)[C@H]2OC(=O)c1ccccc1 (stereo partly specified)
- T/C (dose: 0.5 micrograms/kg/injection, schedule: Q01DX009 (ip), vehicle: saline): 102 % of control
- T/C (dose: 1.0 micrograms/kg/injection, schedule: Q01DX009 (ip), vehicle: saline): 106 % of control
- T/C (dose: 1.9 micrograms/kg/injection, schedule: Q01DX009 (ip), vehicle: saline): 105 % of control
- T/C (dose: 3.8 micrograms/kg/injection, schedule: Q01DX009 (ip), vehicle: saline): 99 % of control
- T/C (dose: 7.5 micrograms/kg/injection, schedule: Q01DX009 (ip), vehicle: saline): 102 % of control
- T/C (dose: 15.0 micrograms/kg/injection, schedule: Q01DX009 (ip), vehicle: saline): 103 % of control
- T/C (dose: 30.0 micrograms/kg/injection, schedule: Q01DX009 (ip), vehicle: saline): 104 % of control

SMILES: [Cl][Pt+2][Cl].[NH-]CC1(C[NH-])CCC1
- T/C (dose: 1.2 mg/kg/injection, schedule: Q01DX009 (ip), vehicle: carboxymethylcellulose (CMC)): 159 % of control
- T/C (dose: 2.4 mg/kg/injection, schedule: Q01DX009 (ip), vehicle: carboxymethylcellulose (CMC)): 168 % of control
- T/C (dose: 3.6 mg/kg/injection, schedule: Q01DX009 (ip), vehicle: carboxymethylcellulose (CMC)): 169 % of control

SMILES: O=[N+]([O-])c1cc(Br)cc2c1nc(Cl)c1ccccc12
- T/C (dose: 50.0 mg/kg/injection, schedule: Q01DX009 (ip), vehicle: saline with Tween-80): 94 % of control
- T/C (dose: 100.0 mg/kg/injection, schedule: Q01DX009 (ip), vehicle: saline with Tween-80): 88 % of control
